Measured values as given in patent publication US20190032014A1, “USING MICROBIOTA METABOLITES TO DIFFERENTIATE NAÏVE T-CELLS AND RELATED METHODS TO INDUCE OR PREVENT INFLAMMATORY CONDITIONS” (THE TEXAS A&M UNIVERSITY SYSTEM, priority 2016, published 2019).
“Also recorded” adds a separate entry of the source.

Key:
CD4+ CD25− naïve T cells [1] = assay: In vitro naïve T cell differentiation, Treg-skew (FoxP3+ by FACS); format: cell-based, C57BL/6 mice; details: Treg skewing conditions, vs DMF control
Protocol: (§1) Mesenteric lymph node (MLN) and spleen are harvested from WT or FOXP3^EGFP C57Bl/6 mice and homogenized. Spleen tissue is subjected to red blood cell lysis and pooled into a single cell suspension for counting. Counted cells are resuspended in sterile FACS buffer (PBS++ with 05% bovine serum albumin) at a concentration of ˜5×10^7 cells/mL and stained for 45 minutes at 4° C. with anti-CD4 and anti-CD25 fluorophore-conjugated monoclonal antibodies (mAb). After two washes, the stained cells are resuspended at ˜6×10^6 cells/mL in FACS buffer and immediately sorted. […] TDMMs are solubilized in DMF at 2 M and used at desired concentrations (e.g., 0.01, 0.1, 0.5 and 1.0 mM) in growth media; DMF in growth media (0.05%) is used as a solvent control.
(§2) The % of Treg or Th17 cells are determined based on the expression of signature transcription factors, FoxP3 and Rorγt, respectively. In addition, signature cytokine markers for Treg and Th17, TGFβ or IL-17, respectively, among others are measured using intracellular cytokine staining. Since it is possible that a cell could be positive for FoxP3 and still express some IL-17, the final % of Tregs are determined as the cell population that is FoxP3+TGFβ+ Rorγt-IL-17−. Similarly, the % of Th17 cells are determined as the population that is FoxP3-TGFβ− Rorγt+IL-17+.
(§3) CD4+ CD25− T cells were isolated to high purity (>98%) from the pooled spleen and mesenteric lymph nodes of C57BL/6 mice (Jackson Labs) with a BD FACS Aria II flow cytometer. Fc Block (BD), αCD4-efluor450 (eBioscience clone GK1.5) and αCD25-PECy7 (eBioscience clone PC61.5) antibodies were used for staining before sorting.
(§4) For Th1-skew: 5 ng/mL IL-12 (Peprotech cat. #210-12) and 10 µg/mL αIL-4 (BioXCell clone 11B11) were added to culture. For Th2-skew: 10 ng/mL IL-4 (Peprotech) and 10 μg/mL αIFN-γ (BioXCell clone R4-6A2) were added to culture. For Th17-skew: 10 ng/mL IL-6 (Peprotech), 5 ng/mL IL-23 (R&D), 0.5 ng/mL TGF-β (Peprotech), 10 μg/mL al-4 (BioXCell clone 11B11), and 10 μg/mL αIFN-γ (BioXCell clone R4-6A2) were added to culture. For Treg-skew: 2 ng/mL TGF-β (Peprotech) and 100 U/mL IL-2 (Roche) were added to culture. Sodium Propionate, sodium acetate, sodium butyrate and sodium chloride (all from Sigma-Aldrich) were solubilized in media and added to culture. Indole was solubilized in DMF (both from Sigma-Aldrich) at 2M and brought to final concentration in media. MGCD0103 (Selleck Chemicals) was solubilized in DMF at 2 mM and brought to final concentration in media. A 0.05% DMF solvent control was used for all experiments.

CD4+ CD25− naïve T cells [2] = assay: In vitro naïve T cell differentiation, Th17-skew (IL-17+ by FACS); format: cell-based, C57BL/6 mice; details: Th17 skewing conditions, vs DMF control
Protocol: as §1, §2, §3, §4

naïve T cells = details: Arpaia et al. 2013; cited from earlier work
IL-6 receptor / pSTAT3 = assay: IL-6 receptor levels and STAT3 activity; format: cell-based; details: vs control
Protocol: Indole and 5-HI were assessed for impact on TGF-β receptor expression and SMAD2/3 activity. […] Indole and 5-HI were also assessed for impact on IL-6 receptor levels and subsequent STAT3 activity.

[3] = system: wild-type or AhR KO T cells; assay: T cell differentiation in wild-type vs AhR KO T cells; format: cell-based, mice
Protocol: The aryl hydrocarbon receptor (AhR) is implicated in the differentiation of Treg and Th17 cells. The role of AhR was assessed with respect to indole's effect on Treg augmentation. Wild-type and AhR KO naïve T-cells were conditioned with increasing amounts of indole and then assessed for % of FoxP3 expression. […] Additionally, the role of AhR was assessed with respect to indole's effect on Th17 inhibition.
The AhR knockout was further investigated for iTreg homing markers, CD62L and α4β7, as described above.
Next, the AhR knockout was further investigated for the impact of AhR on 5-HI-mediated T cell differentiation.

CD4+ CD25− naïve T cells [4] = assay: In vitro naïve T cell differentiation, Th17-skew (IL-17+ by FACS); format: cell-based, C57BL/6 mice; details: low and high titrations of IL-6
Th17 transfer colitis = Th17 transfer colitis murine model; format: in vivo, Rag-null mice
Protocol: Finally, the presentation describes a study of the effects of an indole-induced iTreg skew on the course of colitis in a Th17 transfer colitis murine model. […] Briefly, naïve T-cells (CD4+CD25−) were cultured in vitro with cytokines to skew function towards a Th17 phenotype, in the presence of indole or 5-HI, or not. The skewed cultures were transferred to Rag-null mice (lack T- and B-lymphocytes); control mice received no T-cells. Mice were monitored for weight loss (as a measure of inflammation) over several weeks and assessed at indicated timepoints for T-cell phenotype.
The body weight of the mice was monitored from the time of cell transfer to the end point of day 49. […] Next, the Treg, Th17, and Th1 differentiation was assessed in cells obtained from the mesenteric lymph nodes (MLN) of mice administered directly with indole, 5-HI and control. These cells were determined/assayed by FACS for phenotype directly ex vivo from mice that were treated as in FIG. 28.

CD4+ CD25− naïve T cells [5] = assay: In vitro naïve T cell differentiation, Th1-skew (IFN-γ+); format: cell-based, C57BL/6 mice; details: Th1 skewing conditions; vs solvent control; listed as 5-HI
Protocol: When naïve CD4+ CD25− cells were cultured 72 hours in αCD3/28 coated wells with Th0-, Th1- or Th2-skew cytokines and indole or solvent control, followed by stimulation with PMA, Ionomycin and Golgi Plug for the last 5 hours of culture, no effect on the % of Th1 and Th2 cells was observed (in contrast to the significant effect that indole has on Treg and Th17 cells; see FIGS. 2A and 2B).
as §3, §4

[6] = system: naïve T cells obtained from humans; assay: Skewing of naïve T cells obtained from humans; format: cell-based
[7] = MLN, D15 and D45, by the end point

CC(=O)O [acetate, reference compound]
effect on % FoxP3+ cells / Treg differentiation (CD4+ CD25− naïve T cells [1]): no effect on Treg development
effect on % IL-17+ cells / Th17 differentiation (CD4+ CD25− naïve T cells [2]): increases Th17 development

CCC(=O)O [propionate, reference compound]
effect on % FoxP3+ cells / Treg differentiation (CD4+ CD25− naïve T cells [1]): increases Treg and Th17 development
effect on % IL-17+ cells / Th17 differentiation (CD4+ CD25− naïve T cells [2]): increases Treg and Th17 development
differentiation of naïve T cells to Treg cells (naïve T cells): promoted differentiation of naïve T cells to Treg cells

O=C(O)C(=O)Cc1c[nH]c2ccccc12 [Indole-3-pyruvate]
effect on % FoxP3+ cells / Treg differentiation (CD4+ CD25− naïve T cells [1]): increasing Treg cells
effect on % IL-17+ cells / Th17 differentiation (CD4+ CD25− naïve T cells [2]): modest (but significant) decrease in Th17

Oc1ccc2[nH]ccc2c1 [5-hydroxyindole]
effect on % FoxP3+ cells / Treg differentiation (CD4+ CD25− naïve T cells [1]): decreasing the Treg population
effect on % FoxP3+ cells / Treg differentiation (CD4+ CD25− naïve T cells [1]; listed as 5-HI): inhibits a Treg response; also recorded: strongly inhibits Treg differentiation; also recorded: decreased the % FoxP3+ cells
% pSTAT3+ cells / IL-6 induced stat3 (IL-6 receptor / pSTAT3): augments the IL-6 induced stat3 expression
effect on % IL-17+ cells / Th17 differentiation (CD4+ CD25− naïve T cells [2]): increases Th17 cells
effect on % IL-17+ cells / Th17 differentiation (CD4+ CD25− naïve T cells [2]; listed as 5-HI): pro-Th17 response; also recorded: promotes Th1 and Th17 differentiation; also recorded: significant increase in % IL-17+ cells
% IL-17+ in wild-type vs AhR KO T cells [3]: significantly increased over wild-type cells
% of IFN-γ+ T cells in AhR KO vs wild-type T cells ([3]; Th1 skew): not significantly different than in wild-type cells
FoxP3+ % in wild-type vs AhR KO T cells ([3]; increasing amounts of test substance): decreases similarly in wild-type and AhR KO cells
% IL-17+ cells with titrations of IL-6 (CD4+ CD25− naïve T cells [4]): increased the % IL-17+ cells
Th1 differentiation in vivo (% INF-γ+ T cells, Th1/Treg balance, MLN) (Th17 transfer colitis; [7]): increases the number of Th17 differentiation in vivo
Th17 differentiation in vivo (% IL-17+ T cells, Th17/Treg balance, MLN) (Th17 transfer colitis; [7]): increases the number of Th17 differentiation in vivo
weight change (% from starting weight) (Th17 transfer colitis; mice receiving conditioned Th17 T cells, around day 43, end point day 49): declined precipitously
Th17 transfer colitis in vivo (overall) (Th17 transfer colitis; mouse, in vivo): exacerbates Th17 transfer colitis in vivo
effect on % Th1 cells (IFN-γ+) (CD4+ CD25− naïve T cells [5]): promotes Th1 and Th17 differentiation; also recorded: increase in % IFN-γ+ cells
skewing effects on Tregs and Th17 cells in human cells [6]: recapitulated on naïve T cells obtained from humans
